Results taken from paper PMC5805504 (Oncotarget, 2017).
Read-outs that look alike come from different tables or passages of the source.

Key:
[1] = rats; cited from earlier work
[2] = tested on: pSMAD in Mv1Lu cells; assay: Endogenous pSMAD inhibition in TGFβ1 stimulated Mv1Lu cells; type: cell-based, mink; conditions: data not shown
[3] = tested on: pSMAD in EMT6-LM2 cells; assay: TGFβ1-induced pSMAD inhibition in EMT6-LM2 cells (ELISA)
Description: Next, the samples were homogenized for 15 seconds using Bioruptor® UCD-200 by Diagenode at medium power.
Total and pSMAD2/3 levels were assessed independently on two separate ELISA plates. […] To the pSMAD ELISA plate, 100 μL per well of lysate (ranging from 0.04-0.1 mg total protein) was added to the appropriate wells. To the total SMAD ELISA plate, 10% of the total protein that was added to the pSMAD, was added to the appropriate wells (0.004-0.01 mg protein final). A standard curve was also added to both ELISA plates (p- and tSMAD plates) using recombinant HIS-pSMAD2 protein (Eli Lilly and Company). Plates were incubated overnight then washed four times with wash buffer. […] Following one hour of incubation, plates were washed and developed using 3, 3’, 5, 5’-tetramethylbenzidine substrate (TMB; Surmodics/BioFX #TMBW-0100-01) and absorbance (OD) was read at 450 nm on a plate reader.
Percent inhibition of normalized pSMAD2 levels was calculated by first determining the ratio of tSMAD to pSMAD values for the vehicle group. […]

[4] = tested on: BMP ligand (SMAD1/5/8-responsive promoter); assay: Cell based luciferase reporter assay (SMAD1/5/8), BMP4-stimulated HEK293_SMAD1/5/8 cells; conditions: Homo sapiens; BMP4 20 nM stimulated HEK293_SMAD1/5/8
[5] = tested on: Calu6 human xenograft lung cancer model; assay: Calu6 in vivo xenograft cancer model; set-up: species or system athymic nude mice
Description: Female athymic nude mice from Charles River weighing 22 to 26 grams were implanted subcutaneously in the flank with 1×10^7 cells in a 1:1 (v/v) mixture in matrigel. […] Tumor volumes and body weight were determined by electronic caliper every 2 to 3 days. Repeat measures analysis was utilized with log transformed data and the auto-regression (AR) method to determine the overall p-value for galunisertib growth curves relative to the vehicle control in both tumor models. […]

[6] = in vivo; conditions: female, athymic nu/nu, mouse, plasma, po, 75 mg/kg
Description: For in vivo measurement of tumor cell pSMAD activity, tumors were harvested from mice at the indicated time points post-treatment, snap frozen in liquid nitrogen, then pulverized in lysis buffer [EDTA 5 mM, EGTA 5 mM, sodium pyrophosphate 30 mM, sodium chloride 6.7 mM, sodium fluoride 50 mM, and 1% triton in water, pH 7.4 with protease and phosphatase inhibitors (Sigma, p8340, p5726, p0044) and sodium orthovanadate 2.5 mM]. Protein concentration was estimated with DC protein assay kit (BioRad).
Percent inhibition of normalized pSMAD2 levels was calculated by first determining the ratio of tSMAD to pSMAD values for the vehicle group. […] Percent inhibition for compound treated groups was determined relative to the minimum pSMAD inhibition of the vehicle group using the formula: [(100- (normalized pSMAD in the experimental treatment group/normalized pSMAD in the vehicle treated group)]. IC50 of pSMAD inhibition was calculated for the data using non-linear regression to fit the standard four parameter logistic model using GraphPad Prism 6.
Female athymic nu/nu mice or immune competent syngenic BALB/c mice (Charles River or Taconic Farms, respectively, 22 to 28 grams) were maintained in microisolator cages, received food and water ad libitum, and were quarantined for 1 week before experimental manipulation. Sub-confluent Calu6 human non-small cell lung cancer (NSCLC) cells were injected subcutaneously in the flank of nude mice (1x 10^7cells/per animal) in 0.2 mL of culture medium mixed with Matrigel (BD Biosciences, 1:1 v/v). EMT6-LM2 murine triple negative breast cancer tumor cells (5 × 10^5 cells/per animal in the absence of matrigel) were implanted on the flank of BALB/c mice. EMT6-LM2 cells were generated from parental EMT6 cells which were passaged twice from spontaneous lung metastases (LM) following subcutaneous growth. When the tumor volume reached ~250 mm^3, mice were randomized and separated into treatment groups.
Tumors and plasma were collected 2 hours post dosage for analysis of pSMAD and compound levels.
Tumors and plasma were collected at the indicated time points (0.5, 1, 1.5, 2, 4, 8, and 16 hours) for analysis of pSMAD and compound levels.
Percent target inhibition was calculated as described above then was modeled as a function of either dose or plasma concentration.

[7] = tested on: TGFβ ligand (SMAD2/3-responsive promoter); assay: Cell based luciferase reporter assay (SMAD2/3), TGFβ-stimulated HEK293_SMAD2/3 cells; conditions: Homo sapiens; TGFβ1 2 nM stimulated HEK293_SMAD2/3
[8] = patients with myelodysplastic syndrome; cited from earlier work
[9] = tested on: KPC-M09 cells; assay: E-Cadherin assay / TGFβ1-mediated EMT in KPC-M09 cells; type: cell-based, mouse; conditions: 30 ng/ml TGFβ plus 2 μM or 10 μM, 48 hours
From the text: The primary mouse pancreatic ductal adenocarcinoma (PDAC) cell line KPC-M09 was derived from a pancreatic GEMM [KrasLSL-G12D/+; Trp53LSL-R172H/+; Ptf1aCre/+ (KPC)]. […] Cell morphological changes were imaged at 20X (bright field). Cells were stained with an anti-E-cadherin primary Ab (Cell Signaling, clone 24E10, diluted 1:200) followed with a secondary anti-rabbit Cy3 (Cell Signaling, diluted 1:500). DAPI was used as a counter stain and cells were imaged at 40X.

[10] = tested on: pSMAD in PBMC; assay: 13762 rat tumor model, ex vivo stimulated PBMC pSMAD; type: in vivo, Fischer 344 rats; conditions: Table 4, read-out: IC50 of pSMAD (%CV)
Description: Fischer 344 rats from Taconic Farms weighing 150 to 160 grams were acclimatized for 1 week prior to study initiation and had ad libitum access to food. Rats were shaved in the implant area then given a subcutaneous flank injection of 5 × 10^6 13762 rat mammary carcinoma cells in a 1:1 (v/v) mixture with Matrigel in media. […] Tumor, PBMCs, and plasma were collected at 0.5, 1, 1.5, 2, 4, 8, 16, and 24 hours for further analysis.
Ex vivo stimulation and assessment of target modulation in PBMCs have been described in detail previously. Briefly, whole blood (2 to 3 mL) was collected by cardiac puncture from Fischer 344 rats and transferred to BD Vacutainer CPT sodium citrate tubes. PBMCs isolated from whole blood were stimulated with TGFβ1 at a final concentration of 100 pM at 37°C for one hour. Cells were washed with cold PBS and lysed in 50-100 μL of lysis buffer, and pSMAD and tSMAD levels were assessed by immunoblot assay as described above.
For correlation of pSMAD modulation in 13762 rat mammary carcinoma tumors and PBMCs, data were normalized using an analysis of co-variance of log pSMAD versus log tSMAD and treatment group. The slope (b) from this analysis was used to normalize the pSMAD values using pSMAD/(tSMAD)^b. Percent inhibition was calculated by the following formula: 100-(y/x)*100 where y = normalized pSMAD value and x = mean normalized pSMAD in the vehicle control. […]

Cc1cccc(-c2nn3c(c2-c2ccnc4ccc(C(N)=O)cc24)CCC3)n1.O [galunisertib, 4-[2-(6-methylpyridin-2-yl)-5,6-dihydro-4H-pyrrolo[1,2-b]pyrazol-3-yl]quinoline-6-carboxamide monohydrate]
adverse effects at high doses [1]: associated with adverse effects
IC50 [2]: 176 nM
IC50 ([3]; Mus musculus, read-out: IC50, pSMAD activity, EMT6-LM2, TGFβ1 10 ng/ml, ELISA): 894 nM
IC50 ([3]; read-out: IC50, pSMAD activity, EMT6-LM2, TGFβ1 10 ng/ml, ELISA): 890 nM
IC50 [4]: > 10000 nM
tumor growth delay ([5]; 75 mg/kg twice daily oral gavage, 500 mm^3 crossing time, p = 0.034): 8.3 ± 2.6 days
body weight ([5]; 75 mg/kg twice daily, data not shown): No body weight loss
Tmax [6]: 30 min
IC50 [7]: 221 nM
clinical activity, phase II [8]: clinical activity
TGFβ1-mediated EMT (epithelial morphology, membrane E-cadherin) [9]: prevented TGFβ1-mediated EMT
IC50 [10]: 1960 nM
